According to paper PMC10257182, “Discovery of senolytics using machine learning” (Nature Communications, 2023):
Where a name gives a salt, the structure may show the parent alone.

System: non-senescent control A549 cells
Assay: Nuclei count senolytic assay, TIS model, non-senescent control cells
Format: cell-based, human
Conditions: Homo sapiens, A549, Control cells, mean, read-out: Mean % Cell Survival; for viability at 10 µM: log (dose) [M] -5; for viability at 4.68 µM: log (dose) [M] -5.33; for viability at 2.19 µM: log (dose) [M] -5.66; for viability at 1 µM: log (dose) [M] -6; for viability at 0.468 µM: log (dose) [M] -6.33; for viability at 0.219 µM: log (dose) [M] -6.66; for viability at 0.1 µM: log (dose) [M] -7; for viability at 0.0468 µM: log (dose) [M] -7.33; for viability at 0.0219 µM: log (dose) [M] -7.66; for viability at 0.01 µM: log (dose) [M] -8
Experimental: We performed a second validation of the effectiveness of our machine learning models using a different stressor. We focused on therapy-induced senescence (TIS, Supplementary Fig. 6a), where human epithelial cancerous cells (A549) were induced to become senescent by addition of etoposide. Cells were treated with 100 μM etoposide for 48 h, followed by another three days of exposure to media in standard conditions.
We performed experimental validation of the compounds with z-score > 8 (Fig. 2e). […] We employed two cellular models of senescence: one of OIS and a second one of TIS. For the OIS case, we utilised IMR90 ER:RAS cells with 4-OHT at 100 nM. […] For the TIS model, we used A549 cells with etoposide at 100 μM. The exposure of the cells to etoposide lasted 48 h, after which period the cells were cultivated for a further three days with normal media.
IMR90 (CCL-186) human foetal lung fibroblasts and A549 (CCL-185) human lung adenocarcinoma cells were obtained from the American Type Culture Collection (ATCC, Manassas, VA). The cell lines were confirmed to be mycoplasma negative (Lonza MycoAlert, cat #LT07-118). IMR90 ER:RAS is a derivative of IMR90 cells expressing a switchable version of oncogenic H-Ras[84]. IMR90 ER:RAS and A549 cells were maintained in Dulbecco’s Modified Eagle Medium (DMEM, ThermoFisher) supplemented with foetal bovine serum (10%), L-glutamine (2 mM, ThermoFisher), and antibiotic-antimycotic solution (1%, ThermoFisher) and incubated under standard tissue culture conditions (37 °C and 5% CO2). For induction of the senescent phenotype, IMR90-ER:RAS cells were cultured in hydroxytamoxifen (4-OHT) (Sigma) added media at 100 nM final concentration. IMR90 were kept in culture for over 27 passages for replicative senescence. Cells were tested for mycoplasma on a regular basis.
Cells were seeded (50 μL per well) into 384-well plates (IMR90 ER:RAS cells in Nunc Optical Bottom Polybase Microplates [#142761, Thermo Scientific, Rochester, NY] and A549 cells in CELLSTAR Cell Culture Microplates [#781091, Greiner Bio-One, Kremsmünster, Austria]). Cells were incubated under standard tissue culture conditions for 24 h before the addition of compounds. Passage 14 IMR90 ER:RAS cells were seeded at 1300 cells per well in the control condition, and at 1600 cells per well in the senescent case. Passage 34 A549 cells were seeded at 7000 cells per well in the control condition, and at 10,000 cells per well in the senescent case.
Dose response plates were prepared with a DMSO control and a 10-point […] concentration range, and added to the compounds using a D300e digital dispenser (Tecan Trading AG, Switzerland) at a final concentration of between 10 μM and 10 nM. Every screened condition was carried out in triplicate. After 72 h of incubation with exposure to the compounds, cells were fixed by the addition of an equal volume of formaldehyde (8%, 50 μL; #BP531-500, Fisher Bioreagents, Fisher Scientific, Loughborough, Leicestershire) to the existing media, incubated at room temperature (30 min), and washed three times in phosphate-buffered saline (PBS). Cells were then permeabilised in Triton-X100 (0.1%, 50 μL) and incubated at room temperature (30 min) followed by three more washes with PBS.
Cells were stained with Hoechst 33342 for nuclei count (excitation/emission wavelength at 387/447 […], DAPI channel, original concentration at 10 mg/ml, final concentration at 2 μg/ml; H1399, Molecular Probes, Eugene, OR). The staining solution was prepared in bovine serum albumin solution (10%). The staining solution was added to each well (30 μL) and incubated in the dark at room temperature (30 min), followed by three washes with PBS and no final aspiration. Plates were foil sealed.
Plates were imaged on an ImageXpress micro XLS (Molecular Devices, Eugene, OR) equipped with a robotic plate loader (Scara4, PAA, UK).

Row | SMILES | viability at 10 µM [%] | viability at 4.68 µM [%] | viability at 2.19 µM [%] | viability at 1 µM [%] | viability at 0.468 µM [%] | viability at 0.219 µM [%] | viability at 0.1 µM [%] | viability at 0.0468 µM [%] | viability at 0.0219 µM [%] | viability at 0.01 µM [%]
1 | COc1cc(/C=C/C(=O)O[C@H]2CC[C@]34C[C@]35CC[C@]3(C)[C@@H]([C@H](C)CCC=C(C)C)CC[C@@]3(C)[C@@H]5CC[C@H]4C2(C)C)ccc1O [Gamma oryzanol, gamma oryzanol] | 37.8 | 35 | 87.4 | 76.1 | 75.3 | 109 | 105 | 103 | 106 | 103
2 | O=c1cc(-c2ccc(O)cc2)oc2cc(O)c(O)c(O)c12 [Scutellarein, scutellarein] | 111 | 112 | 105 | 108 | 102 | 109 | 102 | 99.3 | 98.3 | 99.7
3 | O=c1oc2c(O)c(O)cc3c(=O)oc4c(O)c(O)cc1c4c23 [Ellagic acid, ellagic acid] | 90.6 | 76.6 | 114 | 78.9 | 39.9 | 77.2 | 65.1 | 99 | 94.5 | 109
4 | CC[C@]1(O)C[C@@H]2CN(CCc3c([nH]c4ccccc34)[C@@](C(=O)OC)(c3cc4c(cc3OC)N(C)[C@H]3[C@@](O)(C(=O)OC)[C@H](OC(C)=O)[C@]5(CC)C=CCN6CC[C@]43[C@@H]65)C2)C1 [Vinblastine sulfate, vinblastine sulfate, reference compound] | 47.4 | 46.3 | 48.5 | 47 | 45.9 | 49.9 | 52.9 | 66.7 | 69.2 | 78.7
5 | CO[C@H]1C[C@@H]2CC[C@@H](C)[C@@](O)(O2)C(=O)C(=O)N2CCCC[C@H]2C(=O)O[C@H]([C@H](C)C[C@@H]2CC[C@@H](O)[C@H](OC)C2)CC(=O)[C@H](C)/C=C(\C)[C@@H](O)[C@@H](OC)C(=O)[C@H](C)C[C@H](C)/C=C/C=C/C=C/1C [Rapamycin, rapamycin, reference compound] | 74.6 | 60.2 | 54 | 104 | 117 | 122 | 128 | 102 | 117 | 116
6 | O=c1c(O)c(-c2ccc(O)cc2O)oc2cc(O)cc(O)c12 [Morin, morin] | 33.9 | 98.9 | 63.6 | 115 | 104 | 99.4 | 94.4 | 111 | 67.6 | 67.4
